Common to all, as to type: functional
Assay [1] addresses Melanin-concentrating hormone receptor 1 (Homo sapiens, UniProt Q99705). Nature of the assay: Late-stage fluorescence-based counterscreen for antagonists of the G-protein coupled receptor 7 (GPR7): cell-based dose response assay to identify antagonists of the melanin-concentrating hormone receptor 1 (MCHR1) Set 6.
Assay [2] concerns the target Neuropeptides B/W receptor type 1 (Homo sapiens, UniProt P48145). Nature of the assay: human NPBW1 receptor blockade, IC50 – cell-based, fluorescence, dose response, set 6, late-stage follow-up (AID 588583).
For assay [3], the target named is Dual specificity tyrosine-phosphorylation-regulated kinase 1A (Homo sapiens, UniProt Q13627).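 Further: measured against DYRK1A as one member of a broad kinome profiling panel.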
Assay [4] concerns the target RAC-gamma serine/threonine-protein kinase (Homo sapiens, UniProt Q9Y243).
Assay [5] concerns the target Phosphorylase b kinase gamma catalytic chain, liver/testis isoform (Homo sapiens, UniProt P15735).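 Further: PHKG2 measured as one member of a kinome-wide kinase panel.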
For assay [6], the target named is Mitogen-activated protein kinase 13 (Homo sapiens, UniProt O15264).
Assay [7] addresses Dual specificity mitogen-activated protein kinase kinase 1 (Homo sapiens, UniProt Q02750). Nature of the assay: Navigating the Kinome. Panel member name: MAP2K1.
Assay [8] concerns the target Testis-specific serine/threonine-protein kinase 2 (Homo sapiens, UniProt Q96PF2).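 Further: part of the Navigating the Kinome panel, target entry STK22B.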
Assay [9] has as its target Dual specificity protein kinase CLK2 (Homo sapiens, UniProt P49760).
Assay [10] deals with Homeodomain-interacting protein kinase 4 (Homo sapiens, UniProt Q8NE63).
Assay [11] has as its target Interleukin-1 receptor-associated kinase 4 (Homo sapiens, UniProt Q9NWZ3).
The target of assay [12] is Serine/threonine-protein kinase 3 (Homo sapiens, UniProt Q13188).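 Further: measured as one member of a kinome-wide kinase panel.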
Assay [13] addresses Proto-oncogene tyrosine-protein kinase ROS (Homo sapiens, UniProt P08922).
The next assay has as its target SRSF protein kinase 1 (Homo sapiens, UniProt Q96SB4).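 Further: measured as one member of a kinome-wide kinase profiling panel.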
For assay [14], the target named is Calcium/calmodulin-dependent protein kinase type II subunit beta (Homo sapiens, UniProt Q13554).
Assay [15] addresses Serine/threonine-protein kinase MRCK alpha (Homo sapiens, UniProt Q5VT25).
Assay [16] addresses Receptor tyrosine-protein kinase erbB-4 (Homo sapiens, UniProt Q15303).
Assay [17] deals with Testis-specific serine/threonine-protein kinase 1 (Homo sapiens, UniProt Q9BXA7).
The target of assay [18] is BDNF/NT-3 growth factors receptor (Homo sapiens, UniProt Q16620).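 Further: NTRK2 measured as one member of a broad kinome-wide kinase profiling panel.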
BDNF/NT-3 growth factors receptor, sequence (Q16620 whole entry): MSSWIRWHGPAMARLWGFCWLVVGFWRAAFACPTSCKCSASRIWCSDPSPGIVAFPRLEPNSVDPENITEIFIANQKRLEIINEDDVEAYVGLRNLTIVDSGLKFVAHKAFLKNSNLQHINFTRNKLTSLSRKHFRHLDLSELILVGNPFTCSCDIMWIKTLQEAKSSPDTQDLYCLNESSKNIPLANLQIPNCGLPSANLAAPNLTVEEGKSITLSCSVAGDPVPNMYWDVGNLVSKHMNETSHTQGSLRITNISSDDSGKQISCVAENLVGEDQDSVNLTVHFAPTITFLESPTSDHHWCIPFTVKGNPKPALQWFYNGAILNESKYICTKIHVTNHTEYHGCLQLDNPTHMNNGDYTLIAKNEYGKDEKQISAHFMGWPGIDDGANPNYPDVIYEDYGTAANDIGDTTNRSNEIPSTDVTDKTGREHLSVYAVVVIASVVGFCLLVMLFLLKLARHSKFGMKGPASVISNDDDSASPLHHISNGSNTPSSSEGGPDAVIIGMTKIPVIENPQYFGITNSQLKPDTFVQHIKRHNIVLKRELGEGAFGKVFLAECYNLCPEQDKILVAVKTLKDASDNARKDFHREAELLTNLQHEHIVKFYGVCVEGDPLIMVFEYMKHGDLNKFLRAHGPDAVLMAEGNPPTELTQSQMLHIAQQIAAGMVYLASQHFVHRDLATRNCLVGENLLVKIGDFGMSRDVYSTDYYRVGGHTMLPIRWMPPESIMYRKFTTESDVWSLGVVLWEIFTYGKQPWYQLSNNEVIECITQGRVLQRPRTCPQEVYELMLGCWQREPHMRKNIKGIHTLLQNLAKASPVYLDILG
The target in assay [19] is Casein kinase II subunit alpha (Homo sapiens, UniProt P68400).
Assay [20] deals with Calcium/calmodulin-dependent protein kinase type II subunit alpha (Homo sapiens, UniProt Q9UQM7). Briefly: Navigating the Kinome. Panel member name: CAMK2A.
Assay [21] addresses Cyclin-dependent kinase 19 (Homo sapiens, UniProt Q9BWU1). Nature of the assay: Navigating the Kinome. Panel member name: CDC2L6.
Assay [22] has as its target Cyclin-dependent kinase 7 (Homo sapiens, UniProt P50613).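 Further: value comes from a kinome-wide kinase profiling panel in which CDK7 is one member.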
For assay [23], the target named is Mitogen-activated protein kinase 1 (Homo sapiens, UniProt P28482).
The target in assay [24] is Homeodomain-interacting protein kinase 2 (Homo sapiens, UniProt Q9H2X6).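 Further: measured within a kinome-wide kinase profiling panel, HIPK2 being one panel member.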
Homeodomain-interacting protein kinase 2, sequence (Q9H2X6 whole entry): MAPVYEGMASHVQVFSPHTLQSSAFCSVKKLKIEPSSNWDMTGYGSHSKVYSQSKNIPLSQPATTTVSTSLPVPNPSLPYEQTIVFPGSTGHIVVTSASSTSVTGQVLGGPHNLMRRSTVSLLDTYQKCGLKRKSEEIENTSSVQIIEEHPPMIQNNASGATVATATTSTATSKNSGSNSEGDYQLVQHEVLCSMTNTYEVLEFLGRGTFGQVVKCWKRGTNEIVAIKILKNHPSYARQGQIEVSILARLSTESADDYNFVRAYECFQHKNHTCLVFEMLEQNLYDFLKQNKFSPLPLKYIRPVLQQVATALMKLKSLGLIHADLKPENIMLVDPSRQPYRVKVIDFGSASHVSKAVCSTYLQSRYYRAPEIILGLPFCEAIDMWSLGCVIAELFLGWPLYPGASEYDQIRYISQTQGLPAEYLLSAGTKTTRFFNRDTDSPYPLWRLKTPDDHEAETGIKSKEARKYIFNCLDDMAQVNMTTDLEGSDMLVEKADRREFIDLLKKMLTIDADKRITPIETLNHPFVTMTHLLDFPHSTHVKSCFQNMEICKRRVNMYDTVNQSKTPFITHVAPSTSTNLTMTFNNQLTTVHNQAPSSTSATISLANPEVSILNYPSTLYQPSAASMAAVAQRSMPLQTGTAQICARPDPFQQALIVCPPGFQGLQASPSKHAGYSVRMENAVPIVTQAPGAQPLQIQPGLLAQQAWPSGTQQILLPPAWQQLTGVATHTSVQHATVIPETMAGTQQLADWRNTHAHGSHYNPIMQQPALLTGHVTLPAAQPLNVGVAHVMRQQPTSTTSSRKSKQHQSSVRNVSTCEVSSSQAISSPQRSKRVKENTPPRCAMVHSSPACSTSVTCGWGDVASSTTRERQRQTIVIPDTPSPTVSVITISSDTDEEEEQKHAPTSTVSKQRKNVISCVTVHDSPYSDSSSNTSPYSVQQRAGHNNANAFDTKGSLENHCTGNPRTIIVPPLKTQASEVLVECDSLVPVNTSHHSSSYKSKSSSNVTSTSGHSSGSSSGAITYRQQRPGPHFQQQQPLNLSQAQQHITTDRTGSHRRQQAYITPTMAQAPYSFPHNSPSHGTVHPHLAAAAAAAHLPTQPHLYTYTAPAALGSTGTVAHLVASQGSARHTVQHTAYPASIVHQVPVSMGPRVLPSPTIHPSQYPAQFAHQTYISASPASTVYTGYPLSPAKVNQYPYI
Assay [25] has as its target Glycogen synthase kinase-3 alpha (Homo sapiens, UniProt P49840).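 Further: GSK3A result taken from a broad kinome-wide kinase panel.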
Assay [26] addresses Casein kinase I isoform delta (Homo sapiens, UniProt P48730).
The target in assay [27] is Serine/threonine-protein kinase DCLK1 (Homo sapiens, UniProt O15075).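 Further: affinity for DCLK1 (listed as DCAMKL1) measured as one member of a kinome-wide kinase profiling panel.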
Assay [28] has as its target Interleukin-1 receptor-associated kinase 1 (Homo sapiens, UniProt P51617).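 Further: IRAK1 tested as one member of a kinome panel.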
In another assay the target is Focal adhesion kinase 1 (Homo sapiens, UniProt Q05397).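 Further: measured as one member of a kinome panel.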
Assay [29] concerns the target Tyrosine-protein kinase Fyn (Homo sapiens, UniProt P06241).
The target of assay [30] is Casein kinase I isoform gamma-1 (Homo sapiens, UniProt Q9HCP0).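 Further: measured as the CSNK1G1 member of a kinome profiling panel.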
The target in assay [31] is Tyrosine-protein kinase JAK3 (Homo sapiens, UniProt P52333).
In assay [32] the target is Calcium/calmodulin-dependent protein kinase type II subunit delta (Homo sapiens, UniProt Q13557).
The target in assay [33] is Calcium/calmodulin-dependent protein kinase kinase 2 (Homo sapiens, UniProt Q96RR4). Nature of the assay: Navigating the Kinome. Panel member name: CAMKK2.
The target in assay [34] is Platelet-derived growth factor receptor alpha (Homo sapiens, UniProt P16234). Briefly: Navigating the Kinome. Panel member name: PDGFRA.
Assay [35] concerns the target Cyclin-dependent kinase 9 (Homo sapiens, UniProt P50750).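 Further: value from the CDK9 entry of a kinome-spanning kinase panel.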
Assay [36] has as its target Serine/threonine-protein kinase pim-2 (Homo sapiens, UniProt Q9P1W9).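 Further: value comes from a broad kinase panel profiling study in which PIM2 was one of the panel members.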

The structures appear in SMILES notation. Activity calls are given as the source filed them.

Phosphorylase b kinase gamma catalytic chain, liver/testis isoform, sequence (P15735 whole entry, canonical isoform): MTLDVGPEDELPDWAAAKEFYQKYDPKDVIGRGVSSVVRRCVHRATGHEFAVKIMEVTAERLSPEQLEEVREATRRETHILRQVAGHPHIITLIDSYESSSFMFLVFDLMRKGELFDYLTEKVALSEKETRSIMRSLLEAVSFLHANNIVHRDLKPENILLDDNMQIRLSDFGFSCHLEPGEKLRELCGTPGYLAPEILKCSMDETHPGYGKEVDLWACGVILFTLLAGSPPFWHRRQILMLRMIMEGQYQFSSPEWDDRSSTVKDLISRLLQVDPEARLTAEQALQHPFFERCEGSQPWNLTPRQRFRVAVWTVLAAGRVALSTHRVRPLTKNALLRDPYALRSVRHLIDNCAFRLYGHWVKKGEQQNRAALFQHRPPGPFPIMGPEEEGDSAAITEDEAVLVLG
Interleukin-1 receptor-associated kinase 4, sequence (Q9NWZ3 whole entry): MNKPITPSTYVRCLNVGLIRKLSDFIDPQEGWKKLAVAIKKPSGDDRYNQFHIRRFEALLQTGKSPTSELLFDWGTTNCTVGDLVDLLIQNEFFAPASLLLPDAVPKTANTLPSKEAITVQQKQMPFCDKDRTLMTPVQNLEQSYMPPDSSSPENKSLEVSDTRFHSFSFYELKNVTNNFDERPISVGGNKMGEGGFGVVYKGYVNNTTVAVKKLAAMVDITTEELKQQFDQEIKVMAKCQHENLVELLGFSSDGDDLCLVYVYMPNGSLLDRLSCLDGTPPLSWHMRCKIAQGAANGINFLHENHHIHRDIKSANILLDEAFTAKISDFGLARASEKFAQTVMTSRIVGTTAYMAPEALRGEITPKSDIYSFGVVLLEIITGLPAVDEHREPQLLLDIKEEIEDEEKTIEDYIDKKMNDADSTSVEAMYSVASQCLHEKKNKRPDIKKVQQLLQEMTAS
Tyrosine-protein kinase Fyn, sequence (P06241 whole entry, canonical isoform): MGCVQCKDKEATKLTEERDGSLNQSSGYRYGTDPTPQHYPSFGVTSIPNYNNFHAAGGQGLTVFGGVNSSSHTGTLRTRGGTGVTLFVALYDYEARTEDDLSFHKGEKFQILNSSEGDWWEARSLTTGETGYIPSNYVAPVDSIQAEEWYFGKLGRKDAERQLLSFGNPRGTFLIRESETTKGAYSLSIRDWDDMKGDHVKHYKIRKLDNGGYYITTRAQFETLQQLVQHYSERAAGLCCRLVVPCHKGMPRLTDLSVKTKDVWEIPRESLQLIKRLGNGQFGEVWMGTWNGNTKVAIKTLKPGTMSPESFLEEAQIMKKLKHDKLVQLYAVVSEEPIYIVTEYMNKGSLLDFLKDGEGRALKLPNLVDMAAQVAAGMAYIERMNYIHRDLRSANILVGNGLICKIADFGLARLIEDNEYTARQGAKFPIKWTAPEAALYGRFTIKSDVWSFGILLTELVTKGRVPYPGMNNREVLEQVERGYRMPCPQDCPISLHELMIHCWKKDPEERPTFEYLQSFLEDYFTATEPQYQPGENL
Receptor tyrosine-protein kinase erbB-4, sequence (Q15303 whole entry): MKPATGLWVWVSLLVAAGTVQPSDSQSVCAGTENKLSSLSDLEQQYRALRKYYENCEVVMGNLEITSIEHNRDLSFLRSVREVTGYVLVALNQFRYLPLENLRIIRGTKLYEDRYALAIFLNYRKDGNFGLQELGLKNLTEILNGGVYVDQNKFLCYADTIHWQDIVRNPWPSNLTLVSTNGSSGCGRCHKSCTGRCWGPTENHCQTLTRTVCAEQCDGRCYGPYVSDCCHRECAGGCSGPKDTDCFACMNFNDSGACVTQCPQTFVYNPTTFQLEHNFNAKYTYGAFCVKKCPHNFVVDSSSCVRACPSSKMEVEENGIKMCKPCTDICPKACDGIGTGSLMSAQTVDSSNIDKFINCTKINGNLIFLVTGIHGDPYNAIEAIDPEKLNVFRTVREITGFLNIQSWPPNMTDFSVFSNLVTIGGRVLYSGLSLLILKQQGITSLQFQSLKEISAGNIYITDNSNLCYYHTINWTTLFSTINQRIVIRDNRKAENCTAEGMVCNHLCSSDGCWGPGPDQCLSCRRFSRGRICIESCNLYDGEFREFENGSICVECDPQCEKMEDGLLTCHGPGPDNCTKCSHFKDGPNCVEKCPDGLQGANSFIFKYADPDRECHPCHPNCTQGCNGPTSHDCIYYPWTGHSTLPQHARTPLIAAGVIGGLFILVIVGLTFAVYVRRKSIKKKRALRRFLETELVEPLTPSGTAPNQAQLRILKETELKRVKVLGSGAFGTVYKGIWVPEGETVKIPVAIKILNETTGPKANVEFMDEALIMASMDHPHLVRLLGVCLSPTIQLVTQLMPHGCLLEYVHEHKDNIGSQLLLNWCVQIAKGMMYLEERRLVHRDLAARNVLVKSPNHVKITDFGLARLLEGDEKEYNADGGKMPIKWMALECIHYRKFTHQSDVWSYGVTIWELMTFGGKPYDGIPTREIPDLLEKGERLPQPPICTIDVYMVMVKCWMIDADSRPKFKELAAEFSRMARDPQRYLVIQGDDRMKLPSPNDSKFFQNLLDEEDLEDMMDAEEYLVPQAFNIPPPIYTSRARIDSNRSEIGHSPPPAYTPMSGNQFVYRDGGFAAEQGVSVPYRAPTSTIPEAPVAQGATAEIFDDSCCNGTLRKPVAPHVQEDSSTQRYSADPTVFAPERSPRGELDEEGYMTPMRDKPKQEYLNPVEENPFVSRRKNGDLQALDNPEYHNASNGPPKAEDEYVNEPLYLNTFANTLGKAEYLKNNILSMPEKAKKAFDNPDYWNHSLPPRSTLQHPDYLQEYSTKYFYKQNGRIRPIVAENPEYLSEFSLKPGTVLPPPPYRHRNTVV
Neuropeptides B/W receptor type 1, sequence (P48145 whole entry): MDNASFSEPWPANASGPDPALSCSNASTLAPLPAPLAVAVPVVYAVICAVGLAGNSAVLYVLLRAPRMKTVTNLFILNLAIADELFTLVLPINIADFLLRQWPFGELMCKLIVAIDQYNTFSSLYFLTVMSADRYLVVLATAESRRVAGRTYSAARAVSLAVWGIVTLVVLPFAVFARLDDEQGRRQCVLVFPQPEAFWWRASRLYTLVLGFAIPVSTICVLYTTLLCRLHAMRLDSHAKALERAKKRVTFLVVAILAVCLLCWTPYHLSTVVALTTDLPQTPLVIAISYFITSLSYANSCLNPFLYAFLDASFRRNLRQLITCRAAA

Take `C=Cc1cnn(Cc2cccc3ccccc23)c(=O)c1C(C#N)c1ccccc1` (stereo not drawn): the IC50 in [1] and in assay [2] was 2.55 µM (active) in each case.

Take `Cc1cc(Nc2cc(N3CCN(C)CC3)nc(Sc3ccc(NC(=O)C4CC4)cc3)n2)[nH]n1` [TOZASERTIB]: the Ki in [3] is > 2 µM (inactive); in [4] it was > 10 µM (inactive); in [5] it was > 5.01 µM (inactive); in assay [6], > 7.94 µM (inactive); in assay [7] it was 1.26 µM (active); in [8], > 1.58 µM (inactive). Besides, the Ki in [9] is > 3.98 µM (inactive); in assay [10], > 7.94 µM (inactive); in assay [11], 2.51 µM (active); in assay [12], > 2.51 µM (inactive); in assay [13] it was 0.158 µM (active); on SRSF protein kinase 1, > 7.94 µM (inactive). Also, the Ki is > 7.94 µM (inactive) in assay [14]; > 10 µM (inactive) in assay [15]; > 3.98 µM (inactive) in assay [16]; > 1.58 µM (inactive) in assay [17]; 0.316 µM (active) in [18]; > 6.31 µM (inactive) in [19]. Moreover, the Ki in [20] is > 3.98 µM (inactive); in assay [21], 0.2 µM (active); in assay [22] it was > 3.98 µM (inactive); in assay [23] it was > 7.94 µM (inactive); in assay [24], > 3.16 µM (inactive); in assay [25] it was > 3.98 µM (inactive). Moreover, the Ki in [26] was > 7.94 µM (inactive); in [27] it was > 10 µM (inactive); in assay [28], > 7.94 µM (inactive); at Focal adhesion kinase 1 it was > 6.31 µM (inactive); in [29], 3.16 µM (active); in assay [30], > 6.31 µM (inactive). Besides, the Ki in assay [31] is > 5.01 µM (inactive); in [32], > 6.31 µM (inactive); in [33], > 2.51 µM (inactive); in assay [34], > 0.501 µM (inactive); in assay [35], > 1.58 µM (inactive); in assay [36] it was > 1.58 µM (inactive).

The record behind these values is ChEMBL document CHEMBL1201862, “PubChem BioAssay data set” (2004).
